Experimental data taken from US6228626A, “Sarcosine oxidase and process for producing the same” (priority 1998, dated 2001).

Target: mutant sarcosine oxidase from E. coli JM109 (pSO12 EH), FERM BP-6597; mutant of Bacillus sp. NS-129 sarcosine oxidase (wild type SEQ ID NO: 1) (Bacillus sp. NS-129, UniProt P23342)
Test: Km determination by sarcosine oxidase enzyme assay (formaldehyde/acetyl-acetone colour), Lineweaver-Burk plot
Type: biochemical
Details: read-out: Km value (for sarcosine), phosphate buffer pH7.7, 37° C., 10 minutes
Experimental: 0.25M phosphate buffer (0.1 ml, pH7.7), 0.2 M sarcosine solution (0.3 ml) and the enzyme solution with an appropriate concentration (0.1 ml) were mixed and reacted at 37° C. for 10 minutes. Then, 1.0 N acetic acid solution (0.5 ml) was added to the mixture to stop the reaction. To the mixture was added 3 ml of acetyl-acetone color-developing solution (acetyl-acetone, 0.2%(v/v) and diammonium hydrogenphosphate, 10%(w/v) ) (pH6.5) to develop the color at 37° C. for 40 minutes. The absorbance was determined at 410 nm by spectrophotometer. Then, the yield of the enzyme was estimated from the calibration curve of formaldehyde prepared beforehand. The amount of the enzyme which produces 1 μmole of formaldehyde per minute at 37° C. was defined as 1 unit.
The Km value of the enzyme was determined using the assay as described above.

CNCC(=O)O [sarcosine]
Km: ~3.5 mM
